From US10106762B2, “Treating a textile garment with a hydrophobic dye solution” (Henkel IP & Holding GmbH, priority 2004, dated 2018)

Experiments:
LogP of dye = type: physicochemical
[1] = Optical density of dye solution; type: physicochemical; conditions: 200 ppb solution in water at 10 cm; extrapolated from measurement in ethanol solutions at higher levels

Row | Compound | logP (LogP of dye) | OD 10 cm [1]
1 | CN=C1C=CC(=C(c2ccc(N(C)C)cc2)c2ccc(N(C)C)cc2)C=C1 [Solvent Violet 8, Solvent Violet 8 (Methyl Violet B Base)] | 4.5 | 0.26
2 | COc1cc(/N=N/c2c(Br)cc([N+](=O)[O-])cc2[N+](=O)[O-])c(NC(C)=O)cc1N(CCOC(C)=O)CCOC(C)=O [Disperse Blue 79:1] | 4.5 | 0.048
3 | CCN(CC)c1ccc(/N=N/c2c(C#N)cc([N+](=O)[O-])cc2C#N)c(NC(C)=O)c1 [Disperse Blue 165] | 3.5 | 0.014
4 | Disperse Blue 367 |  | 0.0067
5 | Solvent blue 43 |  | 0.33
6 | CCN(CCO)c1ccc(/N=N/c2ccc([N+](=O)[O-])cc2)cc1 [disperse red 1] | 4 | 0.023
7 | CC1(C)Nc2cccc3c(/N=N/c4ccc(/N=N/c5ccccc5)c5ccccc45)ccc(c23)N1 [solvent black 3] | 8.5 | 0.11
